Assay results taken from article PMC5918173, “Characterization of Transglutaminase 2 activity inhibitors in monocytes in vitro and their effect in a mouse model for multiple sclerosis” (PLoS ONE, 2018).

What was measured:
[1] = target: T1, human Factor XIII (FXIII) (Homo sapiens, UniProt P00488); test: Inhibition of recombinant Transglutaminase activity (fluorescent substrate), human Factor XIII; assay type: biochemical; details: Fig 2C, read-out: IC50 to inhibit FXIII activity
T1 construct: purchased Zedira
T1 sequence (P00488 1-732): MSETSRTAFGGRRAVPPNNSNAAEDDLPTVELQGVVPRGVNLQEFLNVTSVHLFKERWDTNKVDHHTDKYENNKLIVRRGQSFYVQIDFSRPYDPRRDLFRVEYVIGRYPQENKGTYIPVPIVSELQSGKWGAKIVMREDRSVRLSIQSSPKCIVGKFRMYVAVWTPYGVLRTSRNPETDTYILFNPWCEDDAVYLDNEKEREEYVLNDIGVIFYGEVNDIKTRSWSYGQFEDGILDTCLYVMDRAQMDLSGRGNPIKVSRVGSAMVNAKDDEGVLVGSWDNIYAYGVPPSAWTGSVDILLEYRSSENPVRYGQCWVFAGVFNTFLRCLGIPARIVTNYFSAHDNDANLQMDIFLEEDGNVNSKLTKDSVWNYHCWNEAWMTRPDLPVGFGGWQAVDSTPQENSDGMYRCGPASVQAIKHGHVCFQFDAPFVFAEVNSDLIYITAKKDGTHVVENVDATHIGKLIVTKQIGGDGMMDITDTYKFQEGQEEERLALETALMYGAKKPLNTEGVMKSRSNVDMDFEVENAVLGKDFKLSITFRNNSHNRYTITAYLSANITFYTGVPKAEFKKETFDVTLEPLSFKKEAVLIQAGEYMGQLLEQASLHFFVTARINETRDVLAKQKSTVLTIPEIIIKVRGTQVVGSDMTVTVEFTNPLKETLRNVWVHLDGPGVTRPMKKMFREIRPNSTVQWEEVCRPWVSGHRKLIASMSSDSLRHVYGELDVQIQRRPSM
Description: The potency and specificity of TG2 inhibitors was assessed with various recombinant TGs, as previously described. The reaction buffer (50 mM Tris, 100 mM NaCl, 10 mM CaCl2, 5 mM H-Gly-OMe*HCl (glycinemethylestherhydrochloride, Sigma), 5 mM hexadimethinbromide (Sigma), 9.1 mM DTT, pH 7.5) was heated to 37°C in a 96 well plate. Then 50 μM of the TG substrate Abz-NE(CAD-DNP)EQVSPLTLLK-OH (Zedira) was added. 1 μg/ml recombinant TG (human TG1, human (hTG2) / mouse TG2 (mTG2) or human Factor XIII (FXIII); Zedira) were added. The two lyophilized TG2 inhibitors (see Fig 1 for chemical structure) BJJF078 (3,4-Dimethoxy-N-(5-[4-(acryloylamino)piperidine-1-sulfonyl]-naphthalen-1-yl)-benzamide, kindly provided by Dr S. El Alaoui, Covalab, France) and ERW1041E (2-[(3-Bromo-4,5-dihydro-isoxazol-5-ylmethyl)-carbamoyl]-pyrrolidine-1—carboxylic acid quinolin-3-ylmethyl ester, kindly provided by Prof C. Khosla, Stanford University, USA) were dissolved in DMSO (stock solution: 54 mM) and stored at -80°C. These stocks were further diluted and various concentrations of the TG2 inhibitors (0.3 nM to 100 μM), were added to the wells (final DMSO concentration per well: 0.06%). The relative increase in fluorescence emission, correlating with enzymatic activity, was measured over 4 h with a fluorimeter (Excitation: 320nm, emission: 405 nm; Fluostar, GMB).

EAE C57BL/6 mice = test: MOG35-55 induced EAE in C57BL/6 mice, treatment with TG2 inhibitors; assay type: in vivo, mouse; details: for loss of body weight compared to vehicle / severity of motor symptoms compared to vehicle: 25 mg/kg i.p. twice daily from onset of EAE symptoms
Description: All animal experiments were approved by the animal ethical committee of the VU University Medical Center and carried out within the animal facility of the Vrije Universiteit Amsterdam (protocol number ANW14-02). C57BL/6 (C57BL/6JOlaHsd) mice were purchased from Harlan (The Netherlands) at an age of 10 weeks and acclimatized to the new environment with water and food access ad libitum for 2 weeks before EAE induction. Humane endpoints were taken into account to prevent unnecessary suffering of the animals.
Active EAE was induced with the myelin oligodendrocyte glycoprotein peptide amino acids 35-55 (MOG35-55) from a EAE induction kit (Hooke laboratories), according to the provided protocol. In short, mice were injected subcutaneously in the upper and lower back with 100 μl of an emulsion of MOG35-55 in complete Freund’s adjuvant (CFA, containing heat inactivated Mycobacterium tuberculosis) each. At 3 hours and 26 hours after the subcutaneous injection of the emulsion, mice received an intraperitoneal injection of 150 ng pertussis toxin dissolved in PBS (volume: 0.1 ml). Disease symptoms and bodyweight were assessed daily starting from day 7 after immunization according to the following scale: 0 no disease, 0.5: partial tail weakness, 1: tail paralysis, 2: hind limb weakness, 3: partial hind limb paralysis, 4: complete hind limb paralysis, 5: moribund, dead.
The mice were injected twice daily with BJJF078 (n = 11) or ERW1041 (n = 12), starting from the onset of EAE symptoms until the end of the experiment (day 21/day 28 after immunization). The EAE animals were injected intraperitoneally with an inhibitor dose of 25 mg/kg bodyweight (i.e. ~100 μl) containing 20% DMSO, while the corresponding control groups (n = 12 and n = 10) were injected with PBS in 20% DMSO.

[2] = tested on: inflammatory cells in spinal cord of EAE mice; test: Immunohistochemistry of cell infiltrates (CD45, CD68, CD3) in spinal cord of EAE mice; assay type: in vivo, mouse; set-up: key to CD45 (average) / CD68 (average): -: no positive cells; +: few positive cells; ++: intermediate amounts of positive cells; +++: high amounts of cells/ cellular clusters; details: for CD3 range / CD45 (average) / CD45 range / CD68 (average) / CD68 range: spinal cord of EAE mice, semi-quantitative, 3 sections per animal; for relative amount of inflammatory cells (CD45, CD68, CD3) in spinal cord: visual inspection or semi-quantification, versus vehicle
Description: Immunohistochemical staining was performed on cervical, thoracic and lumbar spinal cord sections from EAE mice treated with vehicle, BJJF078 or ERW1041E. The sections were brought back to room temperature and fixed with acetone for 10 min.
For single immunohistochemical stainings (CD3, CD45, CD68), endogenous peroxidase activity was blocked for 15 min with 0.3% hydrogen peroxide and 0.1% sodium azide in TBS. […] The sections were incubated with primary antibodies (Table 1) at 4°C overnight. After subsequent 2 h incubation with appropriate biotinylated IgGs (1/400, Jackson), the procedure was continued with a 1 h incubation with HRP-labelled avidin-biotin complex (ABC complex 1:400, Vector ABC elite kit, Vector laboratories) and the protocol was followed as described for the in situ TG activity staining above. Semi-quantitative analysis of cellular infiltrates per cell type was performed by unbiased manual evaluation of stained lesion areas per spinal cord section.

| Structure (SMILES) | IC50 [1] [µM] | loss of body weight compared to vehicle (EAE C57BL/6 mice) | severity of motor symptoms compared to vehicle (EAE C57BL/6 mice) | CD3 range [2] | CD45 (average) [2] | CD45 range [2] | CD68 (average) [2] | CD68 range [2] | relative amount of inflammatory cells (CD45, CD68, CD3) in spinal cord [2] | average maximal disease score (EAE C57BL/6 mice; 25 mg/kg i.p. twice daily from onset, scale 0-5, vehicle 3.9) [score] |
| --- | --- | --- | --- | --- | --- | --- | --- | --- | --- | --- |
| C=CC(=O)NC1CCN(S(=O)(=O)c2cccc3c(NC(=O)c4ccc(OC)c(OC)c4)cccc23)CC1 [BJJF078, 3,4-Dimethoxy-N-(5-[4-(acryloylamino)piperidine-1-sulfonyl]-naphthalen-1-yl)-benzamide] | 22 | no differences | no differences | - to + | ++ | + to +++ | ++ | - to +++ | not affected | – |
| O=C(NCC1CC(Br)=NO1)C1CCCN1C(=O)OCc1cnc2ccccc2c1 (stereo not shown) [ERW1041E, 2-[(3-Bromo-4,5-dihydro-isoxazol-5-ylmethyl)-carbamoyl]-pyrrolidine-1—carboxylic acid quinolin-3-ylmethyl ester] | 52 | not affected | modest but significant reduction | - to + | ++ | + to +++ | ++ | - to +++ | not affected | 3.4 |
